Results on two compounds are retold here after paper PMC11165695 (Nature methods, 2024).

One experiment has as its system SJSA-1 cells. Put plainly: Apoptosis induction / caspase-3/7 activation. The format is cell-based. The conditions noted are these: Supplementary Figure 14.
Experiment [1] relates to alkaline phosphatase (ALP). As to conditions: pNPP 200 μM, ALP 0.5 U/mL, PBS, room temperature, UV absorbance 405 nm.

For `COc1cccc2c1C(=O)c1c(O)c3c(c(O)c1C2=O)C[C@@](O)(C(=O)CO)C[C@@H]3O[C@H]1C[C@H](N)[C@H](O)[C@H](C)O1` [Doxorubicin], the apoptosis induction result in the experiment on SJSA-1 cells is reported as “efficiently induces apoptosis”. As for `O=[N+]([O-])c1ccc(OP(=O)(O)O)cc1` [P-nitrophenyl phosphate], the “initial speed (v0), standard substrate” value in experiment [1] was 0.53 nmol/min.
